Reference: publication PMC9652379, “Safety evaluations of a synthetic antimicrobial peptide administered intravenously in rats and dogs” (Scientific Reports, 2022)
Positions of bridges follow the written chain, without caps; N, C: chain ends. Non-standard residues stand in square brackets, D forms with d. Residues, ends and D or L forms follow the SMILES beside them. Chains are numbered I, II in the order given. βAla = NCCC(=O)O

Tests used:
Sprague Dawley rats [1] = assay: Four-week toxicity study in rats: clinical biochemistry and urinalysis; format: in vivo, rat; conditions: mean ± SD
Procedure: (§1) The purpose of this study was to evaluate the toxic effects of SET-M33 when administered intravenously to Sprague Dawley rats for 4 weeks. Recovery was evaluated during a 14-day drug-free period. The peptide was administered once a day at three dose levels at 5, 9 and 15 mg/kg/day, and the control group was treated with the vehicle (ten males and ten females per group which were sacrificed after 4 weeks for clinical and necroscopy analyses; five males and five females for the control and 15 mg/kg/day groups which were sacrificed after the 2 weeks recovery period). The higher dose was selected on the basis of the DRF study (above) in which evident toxicity was recorded at the dose of 20 mg/kg. The efficacy dose in mouse is 5 mg/kg[24]. The lowest dose of this test is approximately twice the equivalent efficacy dose in rat (using body surface area) and the intermediate dose is approximately the geometric mean of the other two.
Blood samples were collected into lithium heparin tubes. The following parameters were determined using a Cobas 6000 Analyzer (Roche): glucose (Gluc), urea (Urea), creatinine (Creat), bilirubin, total (Bili), cholesterol, total (Chol), triglycerides (Trig), aspartate aminotransferase (AST), alanine aminotransferase (ALT), alkaline phosphatase (ALP), creatine kinase (CK), gamma-glutamyl-transferase (gGT), calcium (Ca), inorganic phosphorus (Phos), sodium (Na), potassium (K), chloride (Cl), albumin (Alb), globulin (calculated from total protein and Alb%) (Glob), total protein (Total Prot), album/globulin ratio (A/G ratio).
Urine was collected overnight into specimen vials (animals were placed in metabolism cages at the end of the working day preceding the day of urine collection). The following parameters were determined using a Cobas u 411 semi-automated test strip analyser (Roche): specific gravity (SG1), protein (Prot), ketones (Keto), volume (Vol), creatinine (U-Creat), bilirubin (Bili), colour (Col), glucose (U-Gluc), erythrocytes (U-RBC), appearance (App), nitrite (Nite), pH, leukocytes (U-WBC).

in vivo = conditions: dog
Procedure: Concentrations of SET-M33 in dog plasma samples and the main toxicokinetic parameters were determined. The exposure parameters (AUCt and Cmax) were compared to evaluate dose-dependency, accumulation ratio and sex-related differences. […] Mean SET-M33 plasma levels increased in parallel in males and females. Mean time to maximum SET-M33 concentration (tmax) was after the end of infusion for both periods (days 1 and 7) and sexes, i.e. 30 min post-dose, coherently with intravenous administration. On day 1 and 7, mean AUCt and Cmax values for the low vs. high dose were close to the theoretical ratio of 2.
Blood samples were taken by direct venepuncture of the jugular vein on days 1 and 7 to determine plasma levels of SET-M33. Sampling times were as follows: Day 1: at 0, 5, 15, 30, 60 and 180 min. Day 7: at 0, 5, 15, 30, 60, 180 min and 24 h after administration. Control animals were only bled once on days 1 and 7 of treatment, 1 h after administration. Blood samples were collected into lithium heparin test tubes and kept in an ice bath until centrifuging (1600 g for 10 min at 2–8 °C). The plasma obtained from each sample was transferred to a fresh polypropylenes test tubes, immediately frozen in dry ice and stored at − 20 °C ± 5.

Sprague Dawley rats [2] = assay: Four-week toxicity study with 2-week recovery in rats: mortality, clinical signs, body weight; format: in vivo, rat; conditions: for weight loss of euthanized animal: 15 mg/kg/day
Procedure: as §1
One male died on day 8 and one male and one female were euthanized for animal welfare reasons on days 6 and 10 of the recovery period, respectively, after showing various clinical signs (hunched back, abnormal gait and pallor) and weight loss of 14% and 11%, respectively. SET-M33-related effects consisting of decreased motor activity, irregular breathing, piloerection, closed or partially closed eyelids, abnormal gait and hunched back were recorded in animals treated at 15 mg/kg/day just after administration for the whole treatment period (as in the DRF study above). […] Among animals that had to be sacrificed for welfare reasons, abnormal gait, partially closed eyelids (the male) and decreased motor activity and piloerection (the female) were also recorded from day 3 onwards. […] During the recovery period, body-weight loss (between 2 and 14% based on individual values) was recorded in some animals dosed at 15 mg/kg/day.
Viability/mortality was monitored twice daily throughout the study. Detailed clinical signs were evaluated once at pre-test, once/twice daily during the treatment period and on days 1, 8, 10 to 14 of the recovery period. […]

Sprague Dawley rats [3] = assay: Dose range finding in rats: haematology, clinical biochemistry, urinalysis; format: in vivo, rat; conditions: female rats, 7 days, mean ± SD
Procedure: Clinical haematology, biochemistry and urinalysis parameters were evaluated in animals in Phase II at the end of the treatment period. A complete list of parameters is reported in Materials and Methods. Administration of SET-M33 at 10 and 20 mg/kg/day for 7 days caused a statistically significant decrease of reticulocytes in males and females. […] There were significant differences in other parameters, such as glucose (males at 10 and 20 mg/kg/day), cholesterol (males at 20 mg/kg/day), triglycerides (females at 20 mg/kg/day), electrolytes, total protein and albumin (males at 20 mg/kg/day). Increased urine volume and lower specific gravity compared to the control group was recorded in both sexes at both doses. […]
Blood samples were drawn from the retro-orbital plexus of all animals under light isoflurane anaesthesia. […] The following parameters were determined using an ADVIA 120 haematology analyser (Siemens Healthcare): Red blood cell count (RBC), haemoglobin (Hb), haematocrit (Hct), mean corpuscular volume (MCV), mean corpuscular haemoglobin (MCH), mean corpuscular haemoglobin concentration (MCHC), reticulocyte count (absolute and relative) (Retic), platelet count (Plt), total leukocyte count (WBC), neutrophils (N), lymphocytes (L), monocytes (M), eosinophils (E), basophils (B), large unstained cells (LUC). […]

CC[C@H](C)[C@H](NC(=O)[C@H](CCCCN)NC(=O)[C@@H](N)CCCCN)C(=O)N[C@@H](CCCNC(=N)N)C(=O)N[C@H](C(=O)N[C@@H](CCCNC(=N)N)C(=O)N[C@@H](CC(C)C)C(=O)N[C@@H](CO)C(=O)N[C@@H](C)C(=O)NCCCC[C@H](NC(=O)[C@H](C)NC(=O)[C@H](CO)NC(=O)[C@H](CC(C)C)NC(=O)[C@H](CCCNC(=N)N)NC(=O)[C@@H](NC(=O)[C@H](CCCNC(=N)N)NC(=O)[C@@H](NC(=O)[C@H](CCCCN)NC(=O)[C@@H](N)CCCCN)[C@@H](C)CC)C(C)C)C(=O)NCCCC[C@H](NC(=O)[C@H](CCCCNC(=O)[C@H](C)NC(=O)[C@H](CO)NC(=O)[C@H](CC(C)C)NC(=O)[C@H](CCCNC(=N)N)NC(=O)[C@@H](NC(=O)[C@H](CCCNC(=N)N)NC(=O)[C@@H](NC(=O)[C@H](CCCCN)NC(=O)[C@@H](N)CCCCN)[C@@H](C)CC)C(C)C)NC(=O)[C@H](C)NC(=O)[C@H](CO)NC(=O)[C@H](CC(C)C)NC(=O)[C@H](CCCNC(=N)N)NC(=O)[C@@H](NC(=O)[C@H](CCCNC(=N)N)NC(=O)[C@@H](NC(=O)[C@H](CCCCN)NC(=O)[C@@H](N)CCCCN)[C@@H](C)CC)C(C)C)C(=O)NCCC(=O)O)C(C)C [SET-M33] (I: H-KKIRVRLSAKK[βAla]-OH / II: H-KKIRVRLSAK / III: H-KKIRVRLSA / IV: H-KKIRVRLSA; amide I:10-IV:C, I:11-II:C, II:10-III:C (inferred); N-terminus and C-terminus assumed)
Phos, inorganic phosphorus (Sprague Dawley rats [1]; female rats, 9 mg/kg/day iv, week 4 of treatment): 1.49 ± 0.415 mmol/L | Phos, inorganic phosphorus (Sprague Dawley rats [1]; female rats, 15 mg/kg/day iv 4 weeks, week 2 of recovery): 2.04 ± 0.616 mmol/L | Phos, inorganic phosphorus (Sprague Dawley rats [1]; male rats, 5 mg/kg/day iv, week 4 of treatment): 1.97 ± 0.309 mmol/L | Phos, inorganic phosphorus (Sprague Dawley rats [1]; male rats, 9 mg/kg/day iv, week 4 of treatment): 2.26 ± 0.393 mmol/L | Phos, inorganic phosphorus (Sprague Dawley rats [1]; male rats, 15 mg/kg/day iv 4 weeks, week 2 of recovery): 2.83 ± 1.37 mmol/L | tmax (in vivo; both sexes, beagle, iv): 30 min | quantifiable plasma concentrations until, after the start of infusion (in vivo; 8 mg/kg/day): up to 24.5 h | weight loss of euthanized animal (Sprague Dawley rats [2]; one female rat, euthanized day 10 of recovery): 11% | weight loss of euthanized animal (Sprague Dawley rats [2]; one male rat, euthanized day 6 of recovery): 14% | mortality (Sprague Dawley rats [2]; rats, 5, 9 and 15 mg/kg/day iv 4 weeks + 2-week recovery): Mortality was only recorded at 15 mg/kg/day | Phos, inorganic phosphorus (Sprague Dawley rats [3]; 10 mg/kg/day iv): 1.96 ± 0.187 mmol/L | Phos, inorganic phosphorus (Sprague Dawley rats [3]; 20 mg/kg/day iv): 2.05 ± 0.26 mmol/L
